According to US12030904B2 (priority 2020, dated 2024):
Where two headings read alike, the source gives them in different places.

How the values were obtained:
[1] = test system: Recombinant Respiratory Syncytial virus strain A2 containing the firefly luciferase reporter (RSV-Fluc); test: microbe, parasite or virus in culture; type: cell-based; conditions: human respiratory syncytial virus, NHBE
MT4 cytotoxicity (CC50) = conditions: human, MT4 cells, MT4 CC50, Table 4
SARS-CoV-2 = test: microbe, parasite or virus in culture; type: cell-based; conditions: Severe acute respiratory syndrome coronavirus 2, read-out: SARS EC50
[2] = 72 h, read-out: RSV-Fluc EC50 (NHBE), NHBE cells, three days, Table 2

| Structure (SMILES) | EC50 ([1]; read-out: RSV EC50, Table 4) [nM] | CC50 (MT4 cytotoxicity (CC50)) [nM] | EC50 [1, 2] [nM] | EC50 ([1]; read-out: RSV EC50, Table 2a) [nM] | EC50 (SARS-CoV-2) [nM] |
| --- | --- | --- | --- | --- | --- |
| CCCCCCCCCCCCCCCCCCOC[C@H](COP(=O)(O)OC[C@H]1O[C@@](C#N)(c2ccc3c(N)ncnn23)[C@H](O)[C@@H]1O)Oc1ncccc1OC [Example 91, ((2R,3S,4R,5R)-5-(4-aminopyrrolo[2,1-f][1,2,4]triazin-7-yl)-5-cyano-3,4-dihydroxytetrahydrofuran-2-yl)methyl ((R)-2-((3-methoxypyridin-2-yl)oxy)-3-(octadecyloxy)propyl) hydrogen phosphate] | 46 | 454 |  |  |  |
| CCCCCCCC/C=C\CCCCCCCCOC[C@H](COP(=O)(O)OC[C@H]1O[C@@](C#N)(c2ccc3c(N)ncnn23)[C@H](O)[C@@H]1O)OCc1cc(F)cc(C#N)c1 [Example 128, ((2R,3S,4R,5R)-5-(4-aminopyrrolo[2,1-f][1,2,4]triazin-7-yl)-5-cyano-3,4-dihydroxytetrahydrofuran-2-yl)methyl ((R)-2-((3-cyano-5-fluorobenzyl)oxy)-3-(((Z)-octadec-9-en-1-yl)oxy)propyl) hydrogen phosphate] | 2 | 730 |  |  |  |
| CCCCCCCCCCCCCCCCCCOC[C@H](COP(=O)(O)OC[C@H]1O[C@@](C#N)(c2ccc3c(N)ncnn23)[C@H](O)[C@@H]1O)Oc1ccc(OC)cn1 [Example 89, ((2R,3S,4R,5R)-5-(4-aminopyrrolo[2,1-f][1,2,4]triazin-7-yl)-5-cyano-3,4-dihydroxytetrahydrofuran-2-yl)methyl ((R)-2-((5-methoxypyridin-2-yl)oxy)-3-(octadecyloxy)propyl) hydrogen phosphate] | 28 | 962 |  |  |  |
| CCCCCCCCCCCCCCCCCCOC[C@H](COP(=O)(O)OC[C@H]1O[C@@](C#N)(c2ccc3c(N)ncnn23)[C@H](O)[C@@H]1O)OCc1cccc(OC)c1 [Example 63, ((2R,3S,4R,5R)-5-(4-aminopyrrolo[2,1-f][1,2,4]triazin-7-yl)-5-cyano-3,4-dihydroxytetrahydrofuran-2-yl)methyl ((R)-2-((3-methoxybenzyl)oxy)-3-(octadecyloxy)propyl) hydrogen phosphate] |  |  | 33 | 3 | 1050 |
| CCCCCCCCCCCCCCCCCCOC[C@H](COP(=O)(O)OC[C@H]1O[C@@](C#N)(c2ccc3c(N)ncnn23)[C@H](O)[C@@H]1O)Oc1ccccc1 [Example 87, ((2R,3S,4R,5R)-5-(4-aminopyrrolo[2,1-f][1,2,4]triazin-7-yl)-5-cyano-3,4-dihydroxytetrahydrofuran-2-yl)methyl ((R)-3-(octadecyloxy)-2-phenoxypropyl) hydrogen phosphate] |  | 3100 |  |  |  |
| CCCCCCCCCCCCCCCCCCOC[C@H](COP(=O)(O)OC[C@H]1O[C@@](C#N)(c2ccc3c(N)ncnn23)[C@H](O)[C@@H]1O)Oc1ccc(C#N)c(OCC)c1 [Example 85, ((2R,3S,4R,5R)-5-(4-aminopyrrolo[2,1-f][1,2,4]triazin-7-yl)-5-cyano-3,4-dihydroxytetrahydrofuran-2-yl)methyl ((R)-2-(4-cyano-3-ethoxyphenoxy)-3-(octadecyloxy)propyl) hydrogen phosphate] | 8 | 143 |  |  |  |
| CCCCCCCCCCCCCCCCCCOC[C@H](COP(=O)(O)OC[C@H]1O[C@@](C#N)(c2ccc3c(N)ncnn23)[C@H](O)[C@@H]1O)Oc1cccc(OC)n1 [Example 88, ((2R,3S,4R,5R)-5-(4-aminopyrrolo[2,1-f][1,2,4]triazin-7-yl)-5-cyano-3,4-dihydroxytetrahydrofuran-2-yl)methyl ((R)-2-((6-methoxypyridin-2-yl)oxy)-3-(octadecyloxy)propyl) hydrogen phosphate] | 31 | 201 |  |  |  |
| CCCCCCCCCCCCCCCCCCOC[C@H](COP(=O)(O)OC[C@H]1O[C@@](C#N)(c2ccc3c(N)ncnn23)[C@H](O)[C@@H]1O)OCc1ccccc1Cl [Example 64, ((2R,3S,4R,5R)-5-(4-aminopyrrolo[2,1-f][1,2,4]triazin-7-yl)-5-cyano-3,4-dihydroxytetrahydrofuran-2-yl)methyl ((R)-2-((2-chlorobenzyl)oxy)-3-(octadecyloxy)propyl) hydrogen phosphate] |  |  | 42 | 42 | 735 |
| CCCCCCCCCCCCCCCCCCOC[C@H](COP(=O)(O)OC[C@H]1O[C@@](C#N)(c2ccc3c(N)ncnn23)[C@H](O)[C@@H]1O)OCc1cc(C#N)cc(C#N)c1 [Example 26, ((2R,3S,4R,5R)-5-(4-aminopyrrolo[2,1-f][1,2,4]triazin-7-yl)-5-cyano-3,4-dihydroxytetrahydrofuran-2-yl)methyl ((R)-2-((3,5-dicyanobenzyl)oxy)-3-(octadecyloxy)propyl) hydrogen phosphate] |  |  | 19 | 19 | 650 |
| CCCCCCCCCCCCCCCCCCOC[C@@H](CCc1cc(F)cc(C#N)c1)COP(=O)(O)OC[C@H]1O[C@@](C#N)(c2ccc3c(N)ncnn23)[C@H](O)[C@@H]1O [Example 86, ((2R,3S,4R,5R)-5-(4-aminopyrrolo[2,1-f][1,2,4]triazin-7-yl)-5-cyano-3,4-dihydroxytetrahydrofuran-2-yl)methyl ((R)-4-(3-cyano-5-fluorophenyl)-2-((octadecyloxy)methyl)butyl) hydrogen phosphate] | 430 | 22000 |  |  |  |
| CCCCCCCCCCCCCCCCCCOC[C@H](COP(=O)(O)OC[C@H]1O[C@@](C#N)(c2ccc3c(N)ncnn23)[C@H](O)[C@@H]1O)Oc1cc(OC)ccn1 [Example 90, ((2R,3S,4R,5R)-5-(4-aminopyrrolo[2,1-f][1,2,4]triazin-7-yl)-5-cyano-3,4-dihydroxytetrahydrofuran-2-yl)methyl ((R)-2-((4-methoxypyridin-2-yl)oxy)-3-(octadecyloxy)propyl) hydrogen phosphate] | 109 | 383 |  |  |  |
| CCCCCCCCCCCCCCCCCCOC[C@H](COP(=O)(O)OC[C@H]1O[C@@](C#N)(c2ccc3c(N)ncnn23)[C@H](O)[C@@H]1O)OCc1ccc(F)cc1 [Example 110, [(2R,3S,4R,5R)-5-(4-Aminopyrrolo[2,1-f][1,2,4]triazin-7-yl)-5-cyano-3,4-dihydroxy-tetrahydrofuran-2-yl]methyl [(2R)-2-[(4-fluorophenyl)methoxy]-3-octadecoxy-propyl] hydrogen phosphate] | 402 |  |  |  | 1200 |
| CCCCCCCCCCCCCCCCCCOC[C@H](COP(=O)(O)OC[C@H]1O[C@@](C#N)(c2ccc3c(N)ncnn23)[C@H](O)[C@@H]1O)OCc1cc(Cl)cc(C#N)c1 [Example 68, ((2R,3S,4R,5R)-5-(4-aminopyrrolo[2,1-f][1,2,4]triazin-7-yl)-5-cyano-3,4-dihydroxytetrahydrofuran-2-yl)methyl ((R)-2-((3-chloro-5-cyanobenzyl)oxy)-3-(octadecyloxy)propyl) hydrogen phosphate] |  |  | 25 | 25 | 927 |
| CCCCCCCCCCCCCCCCOC[C@H](COP(=O)(O)OC[C@H]1O[C@@](C#N)(c2ccc3c(N)ncnn23)[C@H](O)[C@@H]1O)OCc1ccc(F)c(C#N)c1 [Example 109, [(2R,3S,4R,5R)-5-(4-Aminopyrrolo[2,1-f][1,2,4]triazin-7-yl)-5-cyano-3,4-dihydroxy-tetrahydrofuran-2-yl]methyl [(2R)-2-[(3-cyano-4-fluoro-phenyl)methoxy]-3-hexadecoxy-propyl] hydrogen phosphate] | 347 |  |  |  | 1600 |
| CCCCCCCCCCCCCCCCCCOC[C@H](COP(=O)(O)OC[C@H]1O[C@@](C#N)(c2ccc3c(N)ncnn23)[C@H](O)[C@@H]1O)OCc1cc(C#N)ccc1F [Example 66, ((2R,3S,4R,5R)-5-(4-aminopyrrolo[2,1-f][1,2,4]triazin-7-yl)-5-cyano-3,4-dihydroxytetrahydrofuran-2-yl)methyl ((R)-2-((5-cyano-2-fluorobenzyl)oxy)-3-(octadecyloxy)propyl) hydrogen phosphate] |  |  | 10 | 10 | 476 |
| CCCCCCCCCCCCCCCCCCOC[C@H](COP(=O)(O)OC[C@H]1O[C@@](C#N)(c2ccc3c(N)ncnn23)[C@H](O)[C@@H]1O)Oc1cc(C#N)ccn1 [Example 99, [(2R,3S,4R,5R)-5-(4-Aminopyrrolo[2,1-f][1,2,4]triazin-7-yl)-5-cyano-3,4-dihydroxy-tetrahydrofuran-2-yl]methyl [(2R)-2-[(4-cyano-2-pyridyl)oxy]-3-octadecoxy-propyl]hydrogen phosphate] |  | 1780 |  |  |  |
| CCCCCCCCCCCCCCCCCCOC[C@H](COP(=O)(O)OC[C@H]1O[C@@](C#N)(c2ccc3c(N)ncnn23)[C@H](O)[C@@H]1O)OCc1c(F)cccc1C#N [Example 65, ((2R,3S,4R,5R)-5-(4-aminopyrrolo[2,1-f][1,2,4]triazin-7-yl)-5-cyano-3,4-dihydroxytetrahydrofuran-2-yl)methyl ((R)-2-((2-cyano-6-fluorobenzyl)oxy)-3-(octadecyloxy)propyl) hydrogen phosphate] |  |  | 61 | 61 |  |
| CCCCCCCCCCCCCCCCCCOC[C@H](COP(=O)(O)OC[C@H]1O[C@@](C#N)(c2ccc3c(N)ncnn23)[C@H](O)[C@@H]1O)OCc1ccccc1C#N [Example 50, ((2R,3S,4R,5R)-5-(4-aminopyrrolo[2,1-f][1,2,4]triazin-7-yl)-5-cyano-3,4-dihydroxytetrahydrofuran-2-yl)methyl ((R)-2-((2-cyanobenzyl)oxy)-3-(octadecyloxy)propyl) hydrogen phosphate] |  |  | 90 | 90 | 854 |
| CCCCCCCCCCCCCCCCCCOC[C@@H](COP(=O)(O)OC[C@H]1O[C@@](C#N)(c2ccc3c(N)ncnn23)[C@H](O)[C@@H]1O)Oc1ccccc1 [Example 38, ((2R,3S,4R,5R)-5-(4-aminopyrrolo[2,1-f][1,2,4]triazin-7-yl)-5-cyano-3,4-dihydroxytetrahydrofuran-2-yl)methyl ((S)-3-(octadecyloxy)-2-phenoxypropyl) hydrogen phosphate] |  |  |  | 281 | 10000 |
